Experimental data from the supplement of paper PMC10307832.

Columns and labels:
Assay in all cases: relative viability (nuclei count vs DMSO), 5 days (fraction); higher = more cells survive
NCI-H647 = test system: NCI-H647
Method in brief: (§1)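 Values are medians from duplicate plates. Each reflects relative viability, defined as the nuclei count of treated wells over that of vehicle wells. Lung cancer cell lines in 1536-well plates were pin-tool dosed one day after seeding with one drug alone or with a fixed anchor-drug dose plus five library-drug doses (not always all listed) in √10 steps, then fixed, stained and imaged at 4× after 5 days.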

CAL-12T = test system: CAL-12T
Method in brief: as §1

NCI-H1395 = test system: NCI-H1395
Method in brief: as §1

COR-L23 = test system: COR-L23
Method in brief: as §1

NCI-H2170 = test system: NCI-H2170
Method in brief: as §1

NCI-H650 = test system: NCI-H650
Method in brief: as §1

NCI-H2023 = test system: NCI-H2023
Method in brief: as §1

LXF-289 = test system: LXF-289
Method in brief: as §1

A-427 = test system: A-427
Method in brief: as §1

NCI-H1975 = test system: NCI-H1975
Method in brief: as §1

EPLC-272H = test system: EPLC-272H
Method in brief: as §1

HOP-62 = test system: HOP-62
Method in brief: as §1

RERF-LC-KJ = test system: RERF-LC-KJ
Method in brief: as §1

NCI-H596 = test system: NCI-H596
Method in brief: as §1

NCI-H3122 = test system: NCI-H3122
Method in brief: as §1

PC-14 = test system: PC-14
Method in brief: as §1

SK-MES-1 = test system: SK-MES-1
Method in brief: as §1

NCI-H1651 = test system: NCI-H1651
Method in brief: as §1

NCI-H1993 = test system: NCI-H1993
Method in brief: as §1

LCLC-103H = test system: LCLC-103H
Method in brief: as §1

NCI-H2085 = test system: NCI-H2085
Method in brief: as §1

COR-L 105 = test system: COR-L 105
Method in brief: as §1

NCI-H2087 = test system: NCI-H2087
Method in brief: as §1

O=c1[nH]c2ccccc2n1C1CCN(CCCC(c2ccc(F)cc2)c2ccc(F)cc2)CC1 [Pimozide] + CC(=O)Nc1cccc(-n2c(=O)n(C3CC3)c(=O)c3c(Nc4ccc(I)cc4F)n(C)c(=O)c(C)c32)c1 [Trametinib] (partner 0.02 µM)
relative viability (NCI-H647; first compound 0.08 µM): 0.555 | relative viability (NCI-H647; first compound 0.253 µM): 0.491 | relative viability (NCI-H647; first compound 0.8 µM): 0.476 | relative viability (NCI-H647; first compound 2.53 µM): 0.316 | relative viability (NCI-H647; first compound 8 µM): 0.353 | relative viability (CAL-12T; first compound 0.08 µM): 0.326 | relative viability (CAL-12T; first compound 0.253 µM): 0.291 | relative viability (CAL-12T; first compound 0.8 µM): 0.34 | relative viability (CAL-12T; first compound 2.53 µM): 0.272 | relative viability (CAL-12T; first compound 8 µM): 0.251 | relative viability (NCI-H1395; first compound 0.08 µM): 0.929 | relative viability (NCI-H1395; first compound 0.253 µM): 0.924 | relative viability (NCI-H1395; first compound 0.8 µM): 0.993 | relative viability (NCI-H1395; first compound 2.53 µM): 1.09 | relative viability (NCI-H1395; first compound 8 µM): 0.916 | relative viability (COR-L23; first compound 0.08 µM): 0.541 | relative viability (COR-L23; first compound 0.253 µM): 0.596 | relative viability (COR-L23; first compound 0.8 µM): 0.602 | relative viability (COR-L23; first compound 2.53 µM): 0.629 | relative viability (COR-L23; first compound 8 µM): 0.478 | relative viability (NCI-H2170; first compound 0.08 µM): 0.943 | relative viability (NCI-H2170; first compound 0.253 µM): 0.874 | relative viability (NCI-H2170; first compound 0.8 µM): 0.832 | relative viability (NCI-H2170; first compound 2.53 µM): 0.83 | relative viability (NCI-H2170; first compound 8 µM): 0.857 | relative viability (NCI-H650; first compound 0.08 µM): 0.97 | relative viability (NCI-H650; first compound 0.253 µM): 0.962 | relative viability (NCI-H650; first compound 0.8 µM): 0.885 | relative viability (NCI-H650; first compound 2.53 µM): 1.06 | relative viability (NCI-H650; first compound 8 µM): 0.974 | relative viability (NCI-H2023; first compound 0.08 µM): 0.584 | relative viability (NCI-H2023; first compound 0.253 µM): 0.532 | relative viability (NCI-H2023; first compound 0.8 µM): 0.582 | relative viability (NCI-H2023; first compound 2.53 µM): 0.429 | relative viability (NCI-H2023; first compound 8 µM): 0.362 | relative viability (LXF-289; first compound 0.08 µM): 0.623 | relative viability (LXF-289; first compound 0.253 µM): 0.67 | relative viability (LXF-289; first compound 0.8 µM): 0.627 | relative viability (LXF-289; first compound 2.53 µM): 0.687 | relative viability (LXF-289; first compound 8 µM): 0.674 | relative viability (A-427; first compound 0.08 µM): 0.771 | relative viability (A-427; first compound 0.253 µM): 0.75 | relative viability (A-427; first compound 0.8 µM): 0.701 | relative viability (A-427; first compound 2.53 µM): 0.682 | relative viability (A-427; first compound 8 µM): 0.68 | relative viability (NCI-H1975; first compound 0.08 µM): 0.273 | relative viability (NCI-H1975; first compound 0.253 µM): 0.405 | relative viability (NCI-H1975; first compound 0.8 µM): 0.363 | relative viability (NCI-H1975; first compound 2.53 µM): 0.353 | relative viability (NCI-H1975; first compound 8 µM): 0.227 | relative viability (EPLC-272H; first compound 0.08 µM): 0.282 | relative viability (EPLC-272H; first compound 0.253 µM): 0.26 | relative viability (EPLC-272H; first compound 0.8 µM): 0.27 | relative viability (EPLC-272H; first compound 2.53 µM): 0.263 | relative viability (EPLC-272H; first compound 8 µM): 0.233 | relative viability (HOP-62; first compound 0.08 µM): 0.362 | relative viability (HOP-62; first compound 0.253 µM): 0.347 | relative viability (HOP-62; first compound 2.53 µM): 0.328 | relative viability (HOP-62; first compound 8 µM): 0.389 | relative viability (RERF-LC-KJ; first compound 0.08 µM): 0.851 | relative viability (RERF-LC-KJ; first compound 0.253 µM): 0.778 | relative viability (RERF-LC-KJ; first compound 0.8 µM): 0.742 | relative viability (RERF-LC-KJ; first compound 2.53 µM): 0.764 | relative viability (RERF-LC-KJ; first compound 8 µM): 0.609 | relative viability (NCI-H596; first compound 0.08 µM): 0.83 | relative viability (NCI-H596; first compound 0.253 µM): 0.763 | relative viability (NCI-H596; first compound 0.8 µM): 0.738 | relative viability (NCI-H596; first compound 2.53 µM): 0.736 | relative viability (NCI-H596; first compound 8 µM): 0.772 | relative viability (NCI-H3122; first compound 0.08 µM): 0.239 | relative viability (NCI-H3122; first compound 0.253 µM): 0.227 | relative viability (NCI-H3122; first compound 0.8 µM): 0.216 | relative viability (NCI-H3122; first compound 2.53 µM): 0.252 | relative viability (NCI-H3122; first compound 8 µM): 0.188 | relative viability (PC-14; first compound 0.253 µM): 0.622 | relative viability (PC-14; first compound 0.8 µM): 0.686 | relative viability (PC-14; first compound 2.53 µM): 0.607 | relative viability (PC-14; first compound 8 µM): 0.62 | relative viability (SK-MES-1; first compound 0.08 µM): 0.533 | relative viability (SK-MES-1; first compound 0.253 µM): 0.517 | relative viability (SK-MES-1; first compound 0.8 µM): 0.508 | relative viability (SK-MES-1; first compound 2.53 µM): 0.744 | relative viability (SK-MES-1; first compound 8 µM): 0.441 | relative viability (NCI-H1651; first compound 0.08 µM): 0.833 | relative viability (NCI-H1651; first compound 0.253 µM): 0.79 | relative viability (NCI-H1651; first compound 0.8 µM): 0.829 | relative viability (NCI-H1651; first compound 2.53 µM): 0.82 | relative viability (NCI-H1651; first compound 8 µM): 0.853 | relative viability (NCI-H1993; first compound 0.08 µM): 0.561 | relative viability (NCI-H1993; first compound 0.253 µM): 0.495 | relative viability (NCI-H1993; first compound 0.8 µM): 0.596 | relative viability (NCI-H1993; first compound 2.53 µM): 0.484 | relative viability (NCI-H1993; first compound 8 µM): 0.553 | relative viability (LCLC-103H; first compound 0.08 µM): 0.676 | relative viability (LCLC-103H; first compound 0.253 µM): 0.656 | relative viability (LCLC-103H; first compound 0.8 µM): 0.642 | relative viability (LCLC-103H; first compound 2.53 µM): 0.631 | relative viability (LCLC-103H; first compound 8 µM): 0.669 | relative viability (NCI-H2085; first compound 0.08 µM): 0.659 | relative viability (NCI-H2085; first compound 0.253 µM): 0.625 | relative viability (NCI-H2085; first compound 0.8 µM): 0.583 | relative viability (NCI-H2085; first compound 2.53 µM): 0.404 | relative viability (NCI-H2085; first compound 8 µM): 0.399 | relative viability (COR-L 105; first compound 0.08 µM): 0.399 | relative viability (COR-L 105; first compound 0.253 µM): 0.418 | relative viability (COR-L 105; first compound 0.8 µM): 0.425 | relative viability (COR-L 105; first compound 2.53 µM): 0.437 | relative viability (COR-L 105; first compound 8 µM): 0.779 | relative viability (NCI-H2087; first compound 0.08 µM): 0.243 | relative viability (NCI-H2087; first compound 0.253 µM): 0.24 | relative viability (NCI-H2087; first compound 2.53 µM): 0.179 | relative viability (NCI-H2087; first compound 8 µM): 0.205
